Measured values: patent US20090299044A1 (priority 2006, published 2009)
Bridge positions count the residues as written; N and C are the ends. Square brackets hold non-standard residues; d marks the D form. Peptide text beside a SMILES is read from it. 1Nal = N[C@@H](Cc1cccc2ccccc12)C(=O)O

Columns and labels:
human Kv1.3 (CHO) = target: T1, human Kv1.3 (CHO) (Homo sapiens, UniProt P22001); assay: cell-based
T1 construct: expressed in transfected cells; host or cells: CHO

human Kv1.1 (HEK293) = target: T2, human Kv1.1 (HEK293) (Homo sapiens, UniProt Q09470); assay: cell-based
T2 construct: expressed in transfected cells; host or cells: HEK293
T2 sequence (Q09470 whole entry): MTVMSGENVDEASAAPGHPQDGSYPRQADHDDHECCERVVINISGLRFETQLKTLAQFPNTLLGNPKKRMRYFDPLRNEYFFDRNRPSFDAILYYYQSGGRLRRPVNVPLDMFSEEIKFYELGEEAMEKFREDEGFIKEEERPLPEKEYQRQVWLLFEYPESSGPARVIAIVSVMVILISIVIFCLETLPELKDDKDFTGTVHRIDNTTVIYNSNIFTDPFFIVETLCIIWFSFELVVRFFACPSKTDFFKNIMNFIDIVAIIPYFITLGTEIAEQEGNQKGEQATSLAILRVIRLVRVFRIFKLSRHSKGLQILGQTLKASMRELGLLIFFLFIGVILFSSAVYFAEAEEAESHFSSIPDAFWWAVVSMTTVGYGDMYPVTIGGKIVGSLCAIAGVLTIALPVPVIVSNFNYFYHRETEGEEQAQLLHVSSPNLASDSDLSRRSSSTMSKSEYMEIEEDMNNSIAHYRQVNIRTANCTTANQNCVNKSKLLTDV

T1 sequence (P22001 whole entry): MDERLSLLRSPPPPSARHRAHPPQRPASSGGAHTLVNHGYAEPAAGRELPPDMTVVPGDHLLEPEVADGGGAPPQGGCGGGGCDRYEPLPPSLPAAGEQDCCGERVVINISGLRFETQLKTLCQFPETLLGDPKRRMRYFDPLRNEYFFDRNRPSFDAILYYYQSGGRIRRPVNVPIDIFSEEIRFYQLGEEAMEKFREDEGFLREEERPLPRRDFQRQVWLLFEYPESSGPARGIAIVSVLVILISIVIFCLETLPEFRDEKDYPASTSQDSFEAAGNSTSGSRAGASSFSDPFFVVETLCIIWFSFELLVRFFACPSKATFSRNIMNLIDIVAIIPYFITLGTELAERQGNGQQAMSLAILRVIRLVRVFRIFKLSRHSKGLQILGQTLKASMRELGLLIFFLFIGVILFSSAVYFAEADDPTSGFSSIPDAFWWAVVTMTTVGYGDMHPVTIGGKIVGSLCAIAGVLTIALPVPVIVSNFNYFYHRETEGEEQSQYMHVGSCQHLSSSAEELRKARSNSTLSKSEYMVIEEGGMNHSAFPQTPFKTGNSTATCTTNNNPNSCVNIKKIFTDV

SMILES | IC50 (human Kv1.3 (CHO)) | IC50 (human Kv1.1 (HEK293))
CC[C@H](C)[C@@H]1NC(=O)[C@H](CCCCN)NC(=O)[C@@H](NC(=O)[C@H](CCCCN)NC(=O)[C@@H](NC(=O)[C@H](C)NC(=O)[C@@H](NC(=O)[C@@H](NC(=O)[C@@H](NC(=O)CN)C(C)C)[C@@H](C)CC)[C@@H](C)CC)C(C)C)CSSC[C@@H]2NC(=O)[C@H](CCCCN)NC(=O)CNC(=O)[C@H](Cc3ccccc3)NC(=O)[C@H](CCCNC(=N)N)NC(=O)[C@H](CCSC)NC(=O)CNC(=O)[C@H](C)NC(=O)[C@H](CCCCN)NC(=O)[C@H](CCCCN)NC(=O)[C@@H]3CSSC[C@@H](C(=O)N[C@H](C(=O)N4CCC[C@H]4C(=O)N[C@@H](CCCCN)C(=O)O)[C@@H](C)O)NC(=O)[C@H](Cc4c[nH]cn4)NC(=O)[C@H](CSSC[C@H](NC(=O)[C@H](CCC(N)=O)NC(=O)[C@H](CCCNC(=N)N)NC(=O)[C@H](CO)NC1=O)C(=O)N[C@@H](CC(C)C)C(=O)N[C@@H](CCC(=O)O)C(=O)N1CCC[C@H]1C(=O)N3)NC(=O)[C@H](CCCCN)NC(=O)CNC(=O)[C@H](CC(N)=O)NC(=O)[C@H](CCSC)NC2=O [N5A] (H-GVIIAVKCKISRQCLEPCKKAGMRFGKCMNGKCHCTPK-OH; disulfide 8-28, 14-33, 18-35) | 0.16 nM | 0.014 nM
CC[C@H](C)[C@@H]1NC(=O)[C@H](CCCCN)NC(=O)[C@@H](NC(=O)[C@H](CCCCN)NC(=O)[C@@H](NC(=O)[C@H](CCC(=O)O)NC(=O)[C@@H](NC(=O)[C@@H](NC(=O)[C@@H](NC(=O)CN)C(C)C)[C@@H](C)CC)[C@@H](C)CC)C(C)C)CSSC[C@@H]2NC(=O)[C@H](CCCCN)NC(=O)CNC(=O)[C@H](Cc3ccccc3)NC(=O)[C@H](CCCNC(=N)N)NC(=O)[C@H](CCSC)NC(=O)CNC(=O)[C@H](C)NC(=O)[C@H](CCCCN)NC(=O)[C@H](CCCCN)NC(=O)[C@@H]3CSSC[C@@H](C(=O)N[C@H](C(=O)N4CCC[C@H]4C(=O)N[C@@H](CCCCN)C(=O)O)[C@@H](C)O)NC(=O)[C@H](Cc4c[nH]cn4)NC(=O)[C@H](CSSC[C@H](NC(=O)[C@H](CCC(N)=O)NC(=O)[C@H](CCCNC(=N)N)NC(=O)[C@H](CO)NC1=O)C(=O)N[C@@H](CC(C)C)C(=O)N[C@@H](CCC(=O)O)C(=O)N1CCC[C@H]1C(=O)N3)NC(=O)[C@H](CCCCN)NC(=O)CNC(=O)[C@H](CC(N)=O)NC(=O)[C@H](CCSC)NC2=O [N5E] (H-GVIIEVKCKISRQCLEPCKKAGMRFGKCMNGKCHCTPK-OH; disulfide 8-28, 14-33, 18-35) | 0.0234 nM | 0.00444 nM
CC[C@H](C)[C@@H]1NC(=O)[C@H](CCCCN)NC(=O)[C@@H](NC(=O)[C@H](CCCCN)NC(=O)[C@@H](NC(=O)[C@H](Cc2cccc3ccccc23)NC(=O)[C@@H](NC(=O)[C@@H](NC(=O)[C@@H](NC(=O)CN)C(C)C)[C@@H](C)CC)[C@@H](C)CC)C(C)C)CSSC[C@@H]2NC(=O)[C@H](CCCCN)NC(=O)CNC(=O)[C@H](Cc3ccccc3)NC(=O)[C@H](CCCNC(=N)N)NC(=O)[C@H](CCSC)NC(=O)CNC(=O)[C@H](C)NC(=O)[C@H](CCCCN)NC(=O)[C@H](CCCCN)NC(=O)[C@@H]3CSSC[C@@H](C(=O)N[C@H](C(=O)N4CCC[C@H]4C(=O)N[C@@H](CCCCN)C(=O)O)[C@@H](C)O)NC(=O)[C@H](Cc4c[nH]cn4)NC(=O)[C@H](CSSC[C@H](NC(=O)[C@H](CCC(N)=O)NC(=O)[C@H](CCCNC(=N)N)NC(=O)[C@H](CO)NC1=O)C(=O)N[C@@H](CC(C)C)C(=O)N[C@@H](CCC(=O)O)C(=O)N1CCC[C@H]1C(=O)N3)NC(=O)[C@H](CCCCN)NC(=O)CNC(=O)[C@H](CC(N)=O)NC(=O)[C@H](CCSC)NC2=O [N5Nal] (H-GVII[1Nal]VKCKISRQCLEPCKKAGMRFGKCMNGKCHCTPK-OH; disulfide 8-28, 14-33, 18-35) | 0.0218 nM | < 0.00152 nM
CC[C@H](C)[C@@H]1NC(=O)[C@H](CCCCN)NC(=O)[C@@H](NC(=O)[C@H](CCCCN)NC(=O)[C@@H](NC(=O)[C@H](CCCNC(=N)N)NC(=O)[C@@H](NC(=O)[C@@H](NC(=O)[C@@H](NC(=O)CN)C(C)C)[C@@H](C)CC)[C@@H](C)CC)C(C)C)CSSC[C@@H]2NC(=O)[C@H](CCCCN)NC(=O)CNC(=O)[C@H](Cc3ccccc3)NC(=O)[C@H](CCCNC(=N)N)NC(=O)[C@H](CCSC)NC(=O)CNC(=O)[C@H](C)NC(=O)[C@H](CCCCN)NC(=O)[C@H](CCCCN)NC(=O)[C@@H]3CSSC[C@@H](C(=O)N[C@H](C(=O)N4CCC[C@H]4C(=O)N[C@@H](CCCCN)C(=O)O)[C@@H](C)O)NC(=O)[C@H](Cc4c[nH]cn4)NC(=O)[C@H](CSSC[C@H](NC(=O)[C@H](CCC(N)=O)NC(=O)[C@H](CCCNC(=N)N)NC(=O)[C@H](CO)NC1=O)C(=O)N[C@@H](CC(C)C)C(=O)N[C@@H](CCC(=O)O)C(=O)N1CCC[C@H]1C(=O)N3)NC(=O)[C@H](CCCCN)NC(=O)CNC(=O)[C@H](CC(N)=O)NC(=O)[C@H](CCSC)NC2=O [N5R] (H-GVIIRVKCKISRQCLEPCKKAGMRFGKCMNGKCHCTPK-OH; disulfide 8-28, 14-33, 18-35) | 0.0136 nM | 0.00215 nM
CC[C@H](C)[C@@H]1NC(=O)[C@H](CCCCN)NC(=O)[C@@H](NC(=O)[C@H](CCCCN)NC(=O)[C@@H](NC(=O)[C@H](CC(N)=O)NC(=O)[C@@H](NC(=O)[C@@H](NC(=O)[C@@H](NC(=O)CN)C(C)C)[C@@H](C)CC)[C@@H](C)CC)C(C)C)CSSC[C@@H]2NC(=O)[C@H](CCCCN)NC(=O)CNC(=O)[C@H](Cc3ccccc3)NC(=O)[C@H](CCCNC(=N)N)NC(=O)[C@H](CCSC)NC(=O)CNC(=O)[C@H](C)NC(=O)[C@H](CCCCN)NC(=O)[C@H](CCCCN)NC(=O)[C@@H]3CSSC[C@@H](C(=O)N[C@H](C(=O)N4CCC[C@H]4C(=O)N[C@@H](CCCCN)C(=O)O)[C@@H](C)O)NC(=O)[C@H](Cc4c[nH]cn4)NC(=O)[C@H](CSSC[C@H](NC(=O)[C@H](CCC(N)=O)NC(=O)[C@H](CCCNC(=N)N)NC(=O)[C@H](CO)NC1=O)C(=O)N[C@@H](CC(C)C)C(=O)N[C@@H](CCC(=O)O)C(=O)N1CCC[C@H]1C(=O)N3)NC(=O)[C@H](CCCCN)NC(=O)CNC(=O)[C@H](CCCNC(=N)N)NC(=O)[C@H](CCSC)NC2=O [N30R] (H-GVIINVKCKISRQCLEPCKKAGMRFGKCMRGKCHCTPK-OH; disulfide 8-28, 14-33, 18-35) | 0.0189 nM | 0.0457 nM
CC[C@H](C)[C@@H]1NC(=O)[C@H](CCCCN)NC(=O)[C@@H](NC(=O)[C@H](CCCCN)NC(=O)[C@@H](NC(=O)[C@H](CC(N)=O)NC(=O)[C@@H](NC(=O)[C@@H](NC(=O)[C@@H](NC(=O)CN)C(C)C)[C@@H](C)CC)[C@@H](C)CC)C(C)C)CSSC[C@@H]2NC(=O)[C@H](CCCCN)NC(=O)CNC(=O)[C@H](Cc3ccccc3)NC(=O)[C@H](CCCNC(=N)N)NC(=O)[C@H](CCSC)NC(=O)CNC(=O)[C@H](C)NC(=O)[C@H](CCCCN)NC(=O)[C@H](CCCCN)NC(=O)[C@@H]3CSSC[C@@H](C(=O)N[C@H](C(=O)N4CCC[C@H]4C(=O)N[C@@H](CCCCN)C(=O)O)[C@@H](C)O)NC(=O)[C@H](Cc4c[nH]cn4)NC(=O)[C@H](CSSC[C@H](NC(=O)[C@H](CCC(N)=O)NC(=O)[C@H](CCCNC(=N)N)NC(=O)[C@H](CO)NC1=O)C(=O)N[C@@H](CC(C)C)C(=O)N[C@@H](CCC(=O)O)C(=O)N[C@@H](C)C(=O)N3)NC(=O)[C@H](CCCCN)NC(=O)CNC(=O)[C@H](CC(N)=O)NC(=O)[C@H](CCSC)NC2=O [P17A] (H-GVIINVKCKISRQCLEACKKAGMRFGKCMNGKCHCTPK-OH; disulfide 8-28, 14-33, 18-35) | 0.0339 nM | 0.00908 nM
CC[C@H](C)[C@@H]1NC(=O)[C@H](CCCCN)NC(=O)[C@@H](NC(=O)[C@H](CCCCN)NC(=O)[C@@H](NC(=O)[C@H](CC(N)=O)NC(=O)[C@@H](NC(=O)[C@@H](NC(=O)[C@@H](NC(=O)CN)C(C)C)[C@@H](C)CC)[C@@H](C)CC)C(C)C)CSSC[C@@H]2NC(=O)[C@H](CCCCN)NC(=O)CNC(=O)[C@H](Cc3ccccc3)NC(=O)[C@H](CCCNC(=N)N)NC(=O)[C@H](CCSC)NC(=O)CNC(=O)[C@H](C)NC(=O)[C@H](CCCCN)NC(=O)[C@H](CCCCN)NC(=O)[C@@H]3CSSC[C@@H](C(=O)N[C@H](C(=O)N4CCC[C@H]4C(=O)N[C@@H](CCCCN)C(=O)O)[C@@H](C)O)NC(=O)[C@H](Cc4c[nH]cn4)NC(=O)[C@H](CSSC[C@H](NC(=O)[C@H](CCC(N)=O)NC(=O)[C@H](CCCNC(=N)N)NC(=O)[C@H](CO)NC1=O)C(=O)N[C@@H](CC(C)C)C(=O)N[C@@H](CCC(=O)O)C(=O)N[C@@H](CCC(=O)O)C(=O)N3)NC(=O)[C@H](CCCCN)NC(=O)CNC(=O)[C@H](CC(N)=O)NC(=O)[C@H](CCSC)NC2=O [P17E] (H-GVIINVKCKISRQCLEECKKAGMRFGKCMNGKCHCTPK-OH; disulfide 8-28, 14-33, 18-35) | 0.0145 nM | 0.00181 nM
CC[C@H](C)[C@@H]1NC(=O)[C@H](CCCCN)NC(=O)[C@@H](NC(=O)[C@H](CCCCN)NC(=O)[C@@H](NC(=O)[C@H](CC(N)=O)NC(=O)[C@@H](NC(=O)[C@@H](NC(=O)[C@@H](NC(=O)CN)C(C)C)[C@@H](C)CC)[C@@H](C)CC)C(C)C)CSSC[C@@H]2NC(=O)[C@H](CCCCN)NC(=O)CNC(=O)[C@H](Cc3ccccc3)NC(=O)[C@H](CCCNC(=N)N)NC(=O)[C@H](CCSC)NC(=O)CNC(=O)[C@H](C)NC(=O)[C@H](CCCCN)NC(=O)[C@H](CCCCN)NC(=O)[C@@H]3CSSC[C@@H](C(=O)N[C@H](C(=O)N4CCC[C@H]4C(=O)N[C@@H](CCCCN)C(=O)O)[C@@H](C)O)NC(=O)[C@H](Cc4c[nH]cn4)NC(=O)[C@H](CSSC[C@H](NC(=O)[C@H](CCC(N)=O)NC(=O)[C@H](CCCNC(=N)N)NC(=O)[C@H](CO)NC1=O)C(=O)N[C@@H](CC(C)C)C(=O)N[C@@H](CCC(=O)O)C(=O)N[C@@H](Cc1cccc4ccccc14)C(=O)N3)NC(=O)[C@H](CCCCN)NC(=O)CNC(=O)[C@H](CC(N)=O)NC(=O)[C@H](CCSC)NC2=O [P17Nal] (H-GVIINVKCKISRQCLE[1Nal]CKKAGMRFGKCMNGKCHCTPK-OH; disulfide 8-28, 14-33, 18-35) | 0.0162 nM | < 0.00152 nM
